The values below come from US20160324981A1, “LIVER X RECEPTOR AGONISTS AND USES THEREOF” (The California Institute for Biomedical Research, priority 2015, published 2016).

Assay [1] addresses T1, LXR-α (Homo sapiens, UniProt Q13133).
T1 construct: purchased Life Technologies PV4655
T1 sequence (Q13133 209-447 limits assumed): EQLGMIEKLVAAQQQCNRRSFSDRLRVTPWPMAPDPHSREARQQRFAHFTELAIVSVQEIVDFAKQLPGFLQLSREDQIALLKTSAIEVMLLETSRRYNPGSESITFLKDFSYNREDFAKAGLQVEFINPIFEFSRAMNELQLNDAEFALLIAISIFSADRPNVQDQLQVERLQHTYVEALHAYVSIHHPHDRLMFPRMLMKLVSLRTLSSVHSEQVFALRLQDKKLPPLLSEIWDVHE
The assay is described as follows: LanthaScreen TR-FRET LXR alpha Coactivator binding assay. The following applies: EC50 (AC50) from fitted curve, read-out: binding affinity for LXR-α. (In TR-FRET formats the signal depends on donor and acceptor labels being close together.)

Assay [2] has as its target T2, LXR-β (Homo sapiens, UniProt P55055).
T2 construct: purchased Life Technologies PV4658
T2 sequence (P55055 222-460 limits assumed): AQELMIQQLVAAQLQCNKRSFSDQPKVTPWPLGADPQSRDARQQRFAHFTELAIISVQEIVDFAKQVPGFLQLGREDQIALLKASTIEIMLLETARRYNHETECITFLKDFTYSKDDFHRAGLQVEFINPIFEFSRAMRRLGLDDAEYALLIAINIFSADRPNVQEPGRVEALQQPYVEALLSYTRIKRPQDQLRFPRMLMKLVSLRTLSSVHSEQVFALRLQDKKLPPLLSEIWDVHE
The assay is described as follows: LanthaScreen TR-FRET LXR beta Coactivator binding assay. As to conditions: EC50 (AC50) from fitted curve, read-out: binding affinity for LXR-β.

Assay [3] deals with LXR-α transcriptional response element. The assay is described as follows: In vitro LXR transactivation (luciferase reporter) assay in THP-1 cells. The following applies: Homo sapiens, 24 hours, read-out: EC50 (LXR agonist activity). Format: cell-based. The procedure: (§1) Next, the in vitro activity of the anti-CD11a IgGX-CatB-LXR agonist was evaluated using an LXR-driven luciferase stably incorporated into THP-1 and HepG2 cells. This vector encodes the firefly luciferase reporter gene under the control of a CMV promoter and tandem repeats of the LXR-α transcriptional response element. […] Cells were then treated with ONE-Glo and luminescence was read on an Envision plate reader.
(§2) THP-1 cells and HepG2 cells (ATCC) were seeded at 0.6×10^6 cells/well in Opti-MEM media in a 6-well plate and allowed to incubate overnight at 37° C. Afterwards, 50 μL of Cignal lenti LXR-α luciferase reporter (cat no: CLS-7041L, Qiagen) was added to the wells with gentle mixing. After 48 h, the media was changed to completed growth media that was supplemented with 1 μg/mL puromycin. After 24 h, positively transfected cells were cultured for one week in puromycin-containing media.
(In general: A reporter such as luciferase makes a cellular process visible.)

For assay [4] the test system is unchanged. The assay is described as follows: In vitro LXR transactivation (luciferase reporter) assay in HepG2 cells. Format: cell-based. As to conditions: 24 hours, presence or absence of 10% human AB serum. The procedure: as §1, §2
Assay [5] has as its target T3, CD11a (alpha-chain component of lymphocyte function-associated antigen 1, LFA-1) on human THP-1 … (human, UniProt P20701 26-1170).
T3 construct: whole, on cells; Endogenous on THP-1 cells, where it stands with its partner chain in LFA-1; also called LFA-1 alpha chain
The assay is described as follows: flow cytometry on THP-1 cells in the presence of Fc block. The procedure:
Cells were incubated either with 2 nM of the dye-conjugated antibodies or with increasing concentrations of antibody (0-50 nM, right) for 1 h at 4° C. in the presence of Fc block (Human Fc block, BD Biosciences).
Because monocytes/macrophages have Fcγ receptors, the binding in the presence of an Fc blocking reagent was also examined (BD biosciences). […] Furthermore, binding of anti-Her2 to THP-1 cells at different concentrations, with or without Fc block treatment was performed (FIG. 9B).
(Flow cytometry measures light scatter and fluorescence of single cells or particles in a stream.)

T3 sequence (P20701 26-1170): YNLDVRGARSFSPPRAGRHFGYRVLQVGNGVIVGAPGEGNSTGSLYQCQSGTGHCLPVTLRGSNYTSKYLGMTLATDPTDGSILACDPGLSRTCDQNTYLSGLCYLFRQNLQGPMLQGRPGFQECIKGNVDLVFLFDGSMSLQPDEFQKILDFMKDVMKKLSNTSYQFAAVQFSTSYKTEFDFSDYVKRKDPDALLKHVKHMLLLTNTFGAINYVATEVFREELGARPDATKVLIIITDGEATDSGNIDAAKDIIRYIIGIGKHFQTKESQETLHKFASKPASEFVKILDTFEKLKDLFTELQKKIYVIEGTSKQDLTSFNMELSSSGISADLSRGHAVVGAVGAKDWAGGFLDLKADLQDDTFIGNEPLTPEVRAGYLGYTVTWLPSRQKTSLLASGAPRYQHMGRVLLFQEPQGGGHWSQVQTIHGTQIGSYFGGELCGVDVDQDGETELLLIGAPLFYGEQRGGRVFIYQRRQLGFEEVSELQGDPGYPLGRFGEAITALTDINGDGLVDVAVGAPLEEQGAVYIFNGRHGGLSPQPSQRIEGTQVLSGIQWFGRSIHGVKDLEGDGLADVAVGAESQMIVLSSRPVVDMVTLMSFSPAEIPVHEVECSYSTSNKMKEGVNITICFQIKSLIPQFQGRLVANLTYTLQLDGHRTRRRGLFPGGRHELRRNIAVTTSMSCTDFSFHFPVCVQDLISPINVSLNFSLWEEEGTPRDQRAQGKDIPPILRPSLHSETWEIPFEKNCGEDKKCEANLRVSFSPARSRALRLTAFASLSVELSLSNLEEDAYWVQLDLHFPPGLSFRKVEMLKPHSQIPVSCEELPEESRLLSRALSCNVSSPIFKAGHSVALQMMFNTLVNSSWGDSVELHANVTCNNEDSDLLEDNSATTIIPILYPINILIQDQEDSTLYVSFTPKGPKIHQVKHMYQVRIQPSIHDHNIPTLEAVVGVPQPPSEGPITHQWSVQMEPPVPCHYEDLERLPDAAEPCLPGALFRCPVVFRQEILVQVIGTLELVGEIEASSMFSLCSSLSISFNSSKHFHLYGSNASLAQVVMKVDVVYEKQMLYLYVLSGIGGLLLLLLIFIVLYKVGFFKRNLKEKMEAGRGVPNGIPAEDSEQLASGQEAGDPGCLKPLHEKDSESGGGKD

Regarding `O=C(O)Cc1cccc(OCCCN(Cc2cccc(C(F)(F)F)c2Cl)CC(c2ccccc2)c2ccccc2)c1` [compound 1, GW3965, reference compound], the EC50 was 1.1 nM in assay [1] and 0.5 nM in assay [2].

As to `O=S(=O)(c1ccccc1)N(CC(F)(F)F)c1ccc(C(O)(C(F)(F)F)C(F)(F)F)cc1` [compound 2, T0901317], in assay [3], the EC50 came to 79 ± 1.1 nM. In addition, the “LXR activation in HepG2 cells” value in assay [4] is “equipotent in these cells relative to THP-1”.

In the case of `CCc1cnc2c(C(F)(F)F)cccc2c1-c1cccc(Oc2cccc(S(=O)(=O)N(C)CCN)c2)c1` [compound 3], the EC50 in assay [1] came to 1.5 nM; in assay [2] it was 12 nM.

B1: anti-CD11a A122pAcF IgG conjugated to Alexa Fluor 488 (anti-CD11a IgGX-AF488) (antibody, V domains shown)
VH: EVQLVESGGGLVQPGGSLRLSCAASGYSFTGHWMNWVRQAPGKGLEWVGMIHPSDSETRYNQKFKDRFTISVDKSKNTLYLQMNSLRAEDTAVYYCARGIYFYGTTYFDYWGQGTLVTVSS
VL: DIQMTQSPSSLSASVGDRVTITCRASKTISKYLAWYQQKPGKAPKLLIYSGSTLQSGVPSRFSGSGSGTDFTLTISSLQPEDFATYYCQQHNEYPLTFGQGTKVEIKR
modifications: para-acetylphenylalanine (pAcF) at position A122 (the X in SEQ ID NO 10), oxime-linked to aminooxy-Alexa Fluor 488
notes: Humanized monoclonal anti-CD11a IgG made in CHO cells; The unnatural amino acid pAcF sits at heavy chain position A122; also called anti-CD11a pAcF IgGX
As usually defined, the Kd is the constant that tells how readily two partners part at equilibrium. B1: the Kd in assay [5] was about 0.5 nM.
